Laboratory results reported in ChEMBL document CHEMBL4732115, “Discovery of novel cell-penetrating and tumor-targeting peptide-drug conjugate (PDC) for programmable delivery of paclitaxel and cancer treatment” (Eur J Med Chem, 2021).
Values belong to the compound of their own block, whether it stands above or below them. Active and inactive are the calls of the source. No cut-off for these calls is given here.

How the values were obtained:
[1] = Drug uptake in tumor of BALB/c nude mouse xenografted with human MCF7 cells at 8 to 12 umol/kg, ip measured after 2 hrs by LC-MS analysis; type: ADME, organism-based, Neoplasm; details: in vivo, dose 8-12 µmol/kg
MCF7 [2] = test: Cytotoxicity against human MCF7 cells assessed as reduction in cell viability measured after 48 hrs by MTT assay; type: functional, cell-based; details: MCF7, 48 h
HT-29 = test: Cytotoxicity against human HT-29 cells assessed as reduction in cell viability measured after 48 hrs by MTT assay; type: functional, cell-based; details: HT-29, 48 h
A2780 = test: Cytotoxicity against human A2780 cells assessed as reduction in cell viability measured after 48 hrs by MTT assay; type: functional, cell-based; details: A2780, 48 h
[3] = Cytotoxicity against human A2780/PTX cells assessed as reduction in cell viability measured after 48 hrs by MTT assay; type: functional, cell-based
NCM460 = test: Cytotoxicity against human NCM460 cells assessed as reduction in cell viability measured after 48 hrs by MTT assay; type: cell-based; details: NCM460, 48 h
HEK293 = test: Cytotoxicity against HEK293 cells assessed as reduction in cell viability measured after 48 hrs by MTT assay; type: cell-based; details: Homo sapiens, HEK293, 48 h
[4] = Drug uptake in human MCF7 cells at 20 nM measured after 4 hrs by LC-MS analysis; type: ADME, cell-based; details: mcf7, 4 h, 0.02 µM
MCF7 [5] = test: Induction of apoptosis in human MCF7 cells at IC50 measured after 4 hrs by Annexin-V FITC/propidium iodide staining based flow cytometry; type: functional, cell-based
MCF7 [6] = test: Induction of mitochondrial membrane potential loss in human MCF7 cells at IC50 measured after 4 hrs by JC-1 staining based flow cytometry; type: functional, cell-based
MCF7 [7] = test: Cell cycle arrest in human MCF7 cells assessed as increase in accumulation at G2/M-phase at IC50 measured after 4 hrs by […] flow cytometry; type: functional
MCF7 [8] = test: Antitumor activity against human MCF7 cells xenografted in BALB/c nude mouse assessed as reduction in tumor volume at 12 umol/kg, ip administered every two days for two weeks relative to control; type: functional; set-up: scale not given: the % may be the effect or the level left; details: dose 12 µmol/kg; time 2 weeks
MCF7 [9] = test: Antitumor activity against human MCF7 cells xenografted in BALB/c nude mouse assessed as reduction in tumor weight at 12 umol/kg, ip administered every two days for two weeks relative to control; type: functional; set-up: scale not given: the % may be the effect or the level left; details: dose 12 µmol/kg; time 2 weeks
[10] = Neurotoxicity in BALB/c mouse assessed as increase in pain sensitivity at 12 umol/kg, ip administered every two days for 14 days by hot-plate test; type: toxicity, organism-based; details: in vivo, 336 h, dose 12 µmol/kg, time 14 day
[11] = Neurotoxicity in BALB/c mouse assessed as increase in pain sensitivity at 12 umol/kg, ip administered every two days for 14 days by hot water tail immersion test; type: toxicity, organism-based; details: in vivo, 336 h, dose 12 µmol/kg, time 14 day
[12] = Neurotoxicity in BALB/c mouse assessed as increase in pain sensitivity at 12 umol/kg, ip administered every two days for 14 days by cold water tail immersion test; type: toxicity, organism-based; details: in vivo, 336 h, dose 12 µmol/kg, time 14 day
[13] = Neurotoxicity in BALB/c mouse assessed as change in acetylcholine level at 12 umol/kg, ip administered every two days for 14 days measured post last dose by LC-MS analysis; type: toxicity, organism-based; details: in vivo, 336 h, dose 12 µmol/kg, time 14 day
[14] = Neurotoxicity in BALB/c mouse assessed as change in DOPAC level at 12 umol/kg, ip administered every two days for 14 days measured post last dose by LC-MS analysis; type: toxicity, organism-based; details: in vivo, 336 h, dose 12 µmol/kg, time 14 day
[15] = Neurotoxicity in BALB/c mouse assessed as change in dopamine level at 12 umol/kg, ip administered every two days for 14 days measured post last dose by LC-MS analysis; type: toxicity, organism-based; details: in vivo, 336 h, dose 12 µmol/kg, time 14 day
[16] = Neurotoxicity in BALB/c mouse assessed as change in GABA level at 12 umol/kg, ip administered every two days for 14 days measured post last dose by LC-MS analysis; type: toxicity, organism-based; details: in vivo, 336 h, dose 12 µmol/kg, time 14 day
[17] = Neurotoxicity in BALB/c mouse assessed as change in glutamate level at 12 umol/kg, ip administered every two days for 14 days measured post last dose by LC-MS analysis; type: toxicity, organism-based; details: in vivo, 336 h, dose 12 µmol/kg, time 14 day
[18] = Neurotoxicity in BALB/c mouse assessed as change in glutamine level at 12 umol/kg, ip administered every two days for 14 days measured post last dose by LC-MS analysis; type: toxicity, organism-based; details: in vivo, 336 h, dose 12 µmol/kg, time 14 day
[19] = Neurotoxicity in BALB/c mouse assessed as change in histamine level at 12 umol/kg, ip administered every two days for 14 days measured post last dose by LC-MS analysis; type: toxicity, organism-based; details: in vivo, 336 h, dose 12 µmol/kg, time 14 day
[20] = Neurotoxicity in BALB/c mouse assessed as change in histidine level at 12 umol/kg, ip administered every two days for 14 days measured post last dose by LC-MS analysis; type: toxicity, organism-based; details: in vivo, 336 h, dose 12 µmol/kg, time 14 day
[21] = Neurotoxicity in BALB/c mouse assessed as change in noradrenaline level at 12 umol/kg, ip administered every two days for 14 days measured post last dose by LC-MS analysis; type: toxicity, organism-based; details: in vivo, 336 h, dose 12 µmol/kg, time 14 day
[22] = Neurotoxicity in BALB/c mouse assessed as change in serotonin level at 12 umol/kg, ip administered every two days for 14 days measured post last dose by LC-MS analysis; type: toxicity, organism-based; details: in vivo, 336 h, dose 12 µmol/kg, time 14 day
[23] = Neurotoxicity in BALB/c mouse assessed as change in vanillylmandelic acid level at 12 umol/kg, ip administered every two days for 14 days measured post last dose by LC-MS analysis; type: toxicity, organism-based; details: in vivo, 336 h, dose 12 µmol/kg, time 14 day

- Drug uptake [1]: Active
- Drug uptake [4]: Active
Compound: CC(=O)O[C@H]1C(=O)[C@@]2(C)[C@H]([C@H](OC(=O)c3ccccc3)[C@]3(O)C[C@H](OC(=O)[C@H](O)[C@@H](NC(=O)c4ccccc4)c4ccccc4)C(C)=C1C3(C)C)[C@]1(OC(C)=O)CO[C@@H]1C[C@@H]2O [PACLITAXEL]
- IC50 (MCF7 [2]): 0.0066 µM
- IC50 (HT-29): 0.0086 µM
- IC50 (A2780): 0.0152 µM
- IC50 [3]: 23.9 µM
- IC50 (NCM460): 0.0092 µM
- IC50 (HEK293): 0.0163 µM
- Activity (MCF7 [5]): Active
- Activity (MCF7 [6]): Active
- Activity (MCF7 [7]): Active
- Activity (MCF7 [8]): 75.7%
- Activity (MCF7 [9]): 65.7%
- Activity [10]: Toxic
- Activity [11]: Toxic
- Activity [12]: Toxic
- Activity [13]: Toxic
- Activity [14]: Toxic
- Activity [15]: Toxic
- Activity [16]: Toxic
- Activity [17]: Toxic
- Activity [18]: Toxic
- Activity [19]: Toxic
- Activity [20]: Toxic
- Activity [21]: Toxic
- Activity [22]: Toxic
- Activity [23]: Toxic

Compound: H-FFRKLKKSV-NH2
- IC50 (MCF7 [2]): > 50 µM
- IC50 (HT-29): > 50 µM

Compound: H-FKKFFRKLK-NH2
- IC50 (MCF7 [2]): > 50 µM
- IC50 (HT-29): > 50 µM

Compound: H-KFFRKLKKS-NH2
- IC50 (MCF7 [2]): > 50 µM
- IC50 (HT-29): > 50 µM

Compound: H-KKFFRKLKK-NH2
- IC50 (MCF7 [2]): > 50 µM
- IC50 (HT-29): > 50 µM

Compound: H-KRFKKFFRK-NH2
- IC50 (MCF7 [2]): > 50 µM
- IC50 (HT-29): > 50 µM

Compound: H-RFKKFFRKL-NH2
- IC50 (MCF7 [2]): > 50 µM
- IC50 (HT-29): > 50 µM

Compound: H-VKRFKKFFR-NH2
- IC50 (MCF7 [2]): > 50 µM
- IC50 (HT-29): > 50 µM

Compound: H-VKRFKKFFRKLKKSV-NH2
- IC50 (MCF7 [2]): 18.2 µM
- IC50 (HT-29): 15.1 µM
